# Structures can show the parent of a compound that is named as a salt.
# Target: human Cat S (Homo sapiens (Human), UniProt P25774)
# Experiment: Cathepsin enzyme inhibition assay (fluorogenic peptide substrate cleavage)
# Format: biochemical
# Settings: human Cathepsin S 1 nM, substrate Z-Val-Val-Arg-AMC 20 μM, pH 6.5; read-out: Ic50 CatS: human
# Procedure: Cathepsin Enzyme Inhibition Assay
# Enzyme activity is measured by observing the increase in fluorescence intensity caused by cleavage of a peptide substrate containing a fluorophore whose emission is quenched in the intact peptide. • Assay buffer: 100 mM potassium phosphate pH 6.5, EDTA-Na 5 mM, Triton X-100 0.001%, DTT 5 mM. • Enzymes (all at 1 nM): human and mouse Cathepsin S, Cat K, Cat B, Cat L. • Substrate (20 μM): Z-Val-Val-Arg-AMC, except for Cat K which uses Z-Leu-Arg-AMC (both from Bachem). • Z=Benzyloxycarbonyl. • AMC=7-Amino-4-Methyl-Coumarin. • DTT=dithiothreitol. • Final volume: 100 μL. • Excitation 360 nm, Emission 465 nm.
# Enzyme is added to the substance dilutions in 96-well microtitre plates and the reaction is started with substrate. Fluorescence emission is measured over 20 minutes, during which time a linear increase is observed in the absence of inhibitor. IC50 are calculated by standard methods.
# Inhibition of human Cat S, mouse Cat S, human Cat K, human Cat B, human Cat L and mouse Cat L have been measured separately. The results obtained for human Cat S for representative compounds of the invention are expressed in the following table in μM.
# Chain of human Cat S (P25774 115-331): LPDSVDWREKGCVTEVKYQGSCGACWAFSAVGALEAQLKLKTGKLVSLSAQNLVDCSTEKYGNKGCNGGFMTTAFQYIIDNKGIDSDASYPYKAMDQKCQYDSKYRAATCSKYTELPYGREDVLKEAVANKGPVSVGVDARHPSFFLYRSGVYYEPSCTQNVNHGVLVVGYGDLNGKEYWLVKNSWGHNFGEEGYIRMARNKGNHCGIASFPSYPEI
row,SMILES,IC50 [nM]
1,"N#CC1(NC(=O)[C@@H]2C[C@@H](S(=O)(=O)c3ccccc3Cl)CN2C(=O)C2CCN2C2CCC(F)(F)CC2)CC1 (stereo partly drawn) [Example 2, (2S,4R)-4-(2-Chlorophenylsulfonyl)-N-(1-cyanocyclopropyl)-1-(1-(4,4-difluorocyclohexyl)azetidine-2-carbonyl)pyrrolidine-2-carboxamide]",1
2,"Cc1nsc(N2CCC(N3CCC3C(=O)N3C[C@H](S(=O)(=O)c4ccccc4Cl)C[C@H]3C(=O)NC3(C#N)CC3)CC2)n1 (stereo partly drawn) [Example 4, (2S,4R)-4-(2-Chlorophenylsulfonyl)-N-(1-cyanocyclopropyl)-1-(1-(1-(3-methyl-1,2,4-thiadiazol-5-yl)piperidin-4-yl)azetidine-2-carbonyl)pyrrolidine-2-carboxamide formate]",0.9
3,"CC(=O)N1CCC(N2CCC2C(=O)N2C[C@H](S(=O)(=O)c3ccccc3Cl)C[C@H]2C(=O)NC2(C#N)CC2)CC1 (stereo partly drawn) [Example 6, (2S,4R)-1-(1-(1-Acetylpiperidin-4-yl)azetidine-2-carbonyl)-4-(2-chlorophenylsulfonyl)-N-(1-cyanocyclopropyl)pyrrolidine-2-carboxamide]",1.3
4,"N#CC1(NC(=O)[C@@H]2C[C@@H](S(=O)(=O)c3ccccc3Cl)CN2C(=O)C2CCN2C2CCN(CC(F)(F)F)CC2)CC1 (stereo partly drawn) [Example 7, (2S,4R)-4-(2-Chlorophenylsulfonyl)-N-(1-cyanocyclopropyl)-1-(1-(1-(2,2,2-trifluoroethyl)piperidin-4-yl)azetidine-2-carbonyl)pyrrolidine-2-carboxamide]",3.9
5,"CC1(C)CC(N2CCC2C(=O)N2C[C@H](S(=O)(=O)c3ccccc3Cl)C[C@H]2C(=O)NC2(C#N)CC2)CCO1 (stereo partly drawn) [Example 8, (2S,4R)-4-(2-Chlorophenylsulfonyl)-N-(1-cyanocyclopropyl)-1-(1-(2,2-dimethyltetrahydro-2H-pyran-4-yl)azetidine-2-carbonyl)pyrrolidine-2-carboxamide]",2.5
6,"CCOC(=O)N1CCC(N2CCC2C(=O)N2C[C@H](S(=O)(=O)c3ccccc3Cl)C[C@H]2C(=O)NC2(C#N)CC2)CC1 (stereo partly drawn) [Example 11, Ethyl 4-(2-((2S,4R)-4-(2-chlorophenylsulfonyl)-2-(1-cyanocyclopropylcarbamoyl)pyrrolidine-1-carbonyl)azetidin-1-yl)piperidine-1-carboxylate]",1.7

# Second part, the compound after the results:
row,IC50 [nM],SMILES
1,1.7,"N#CC1(NC(=O)[C@@H]2C[C@@H](S(=O)(=O)c3ccccc3Cl)CN2C(=O)C2CCN2C2CCCCC2)CC1 (stereo partly drawn) [Example 1, (2S,4R)-4-(2-Chlorophenylsulfonyl)-N-(1-cyanocyclopropyl)-1-(1-cyclohexylazetidine-2-carbonyl)pyrrolidine-2-carboxamide]"
2,3.8,"CC1(C)CCC(N2CCC2C(=O)N2C[C@H](S(=O)(=O)c3ccccc3Cl)C[C@H]2C(=O)NC2(C#N)CC2)CC1 (stereo partly drawn) [Example 3, (2S,4R)-4-(2-Chlorophenylsulfonyl)-N-(1-cyanocyclopropyl)-1-(1-(4,4-dimethylcyclohexyl)azetidine-2-carbonyl)pyrrolidine-2-carboxamide]"
3,0.8,"N#CC1(NC(=O)[C@@H]2C[C@@H](S(=O)(=O)c3ccccc3Cl)CN2C(=O)C2CCN2C2CCOCC2)CC1 (stereo partly drawn) [Example 5, (2S,4R)-4-(2-Chlorophenylsulfonyl)-N-(1-cyanocyclopropyl)-1-(1-(tetrahydro-2H-pyran-4-yl)azetidine-2-carbonyl)pyrrolidine-2-carboxamide formate]"
4,2,"N#CC1(NC(=O)[C@@H]2C[C@@H](S(=O)(=O)c3ccccc3Cl)CN2C(=O)C2CCN2C2CCCC2)CC1 (stereo partly drawn) [Example 9, (2S,4R)-4-(2-Chlorophenylsulfonyl)-N-(1-cyanocyclopropyl)-1-(1-cyclopentylazetidine-2-carbonyl)pyrrolidine-2-carboxamide]"
5,2.2,"N#CC1(NC(=O)[C@@H]2C[C@@H](S(=O)(=O)c3ccccc3Cl)CN2C(=O)C2CCN2C2CCSCC2)CC1 (stereo partly drawn) [Example 10, (2S,4R)-4-(2-Chlorophenylsulfonyl)-N-(1-cyanocyclopropyl)-1-(1-(tetrahydro-2H-thiopyran-4-yl)azetidine-2-carbonyl)pyrrolidine-2-carboxamide]"

# Reference: patent US8802665B2, “Pyrrolidine derivatives” (Hoffman-La Roche Inc., priority 2012, dated 2014)
